Source: patent US8420574B2, “Plant growth enhancement with combinations of PESA and herbicides” (Valent BioSciences Corporation, priority 2009, dated 2013)

What was measured:
Assay type in all cases: in vivo
[1] = tested on: cotton; assay: Pouch assay; root and shoot length of cotton; settings: 0 ppm PESA salt; for Shoot Length: untreated 4.7; for Root Length: untreated 7.7
Experimental: (§1) Seeds were placed in germination pouches consisting of germination paper hydrated with sterile water that was an insert in a gas-permeable 16×14 cm plastic pouch (CYG Pouch; Mega International, St. Paul, Minn.). In these examples, in pouch solution evaluation, PESA sodium salt or other active ingredients were added to the sterile water in the pouch. The pouches were arranged in a completely randomized block design in growth racks and placed in 19-liter polycarbonate food storage containers (Rubbermaid Commercial Products, Winchester, Va.). The sealed containers were held in an upright growth cabinet maintained at 25 C with a 12 hour light: 12 hour dark photoperiod. After 6 days, the containers were removed from the growth cabinet, and the lengths of the roots and shoot were measured.

[2] = tested on: rice cv. Cheniere; assay: Pouch assay, PESA salt and herbicide added to the pouch solution; root and shoot length
Experimental: Alternatively, PESA salt and herbicides may be added separately to the sterile water in the growth pouch.
as §1

[3] = tested on: rice cv. Nipponbare; assay: Hydroponic assay; total root length and shoot length; settings: for Shoot Length / Total Root Length: 0 ppm PESA salt
Experimental: Where hydroponically-grown rice was used in studies, the seeds were pre-incubated in water at 30 C for 2 days to stimulate germination. Three seeds were placed on a float and cultivated hydroponically in a test tube (25 mm×200 mm), which contained 50 ml of Kimura B nutrient solution at ⅛th strength supplemented with herbicides and PESA sodium salt. The exposure of the roots to the light was prevented by wrapping the tubes with aluminum foil. The rice seedlings were incubated in a growth cabinet at 25 C under continuous light for 14 days, and the total root length and shoot length were measured. Total root length (cm) was the root length/plant determined following scanning with WinRhizo software (Regent Instruments INC, Toronto, Canada).

[4] = tested on: rice cv. Cheniere; assay: Emergence of seed-treated rice seeded onto soil previously treated with herbicide; settings: no seed treatment (Control), untreated 90
From the text: Seed was sieved with a screen of mesh size appropriate to remove broken seeds and small trash. Cracked or otherwise damaged seeds were removed. The seed was well mixed, and 50 g samples were weighed into small plastic trays. […] A fungicide (Maxim XL; Syngenta Agricultural Products, Greensboro, N.C.), a polymeric binder (CF-Clear; Becker-Underwood, Ames, Iowa), and a colorant (Color Coat Red; Becker-Underwood, Ames, Iowa) were also included in the slurry at label rates. A small aliquot of this slurry was applied to the seed using the Hege 11 coater (Wintersteiger, Salt Lake City, Utah) with a six-inch bowl at a slurry rate of 30 ounces per 100 lbs of seed. The slurry was deposited drop-wise on the spinning disk atomizer using a syringe.
Rice cv. […] It was then seeded onto soil which was previously sprayed with the pendimethalin herbicide Prowl H2O® (BASF Agricultural Products, Research Triangle Park, N.C.).
After seed treatment, rice was seeded into soil previously treated with the dithiopyr herbicide Dimension®.
Rice seed treated with PESA was tested for its ability to protect rice from the herbicide Roundup WeatherMax® (glyphosate). After seed treatment, rice was seeded into soil previously treated with the Roundup WeatherMax®.

[5] = 10 ppm dithiopyr, treatment none (Control), 30 ppm PESA salt, 10 ppm GA3 or both, untreated 3.9
[6] = 10 ppm dithiopyr, treatment none (Control), 30 ppm PESA salt, 10 ppm GA3 or both, untreated 9.5
[7] = 50 ppm pendimethalin, treatment none (Control), 30 ppm PESA salt, 10 ppm GA3 or both, untreated 3.9
[8] = 50 ppm pendimethalin, treatment none (Control), 30 ppm PESA salt, 10 ppm GA3 or both, untreated 9.7
[9] = pendimethalin (Table 4, 50 ppm)

## COc1nc(C)nc(NC(=O)NS(=O)(=O)c2ccccc2Cl)n1 [Chlorsulfuron, chlorsulfuron, reference compound]
[1]; 1 ppm chlorsulfuron
  Shoot Length: 2.3 cm
  Root Length: 2.1 cm
[1]; 10 ppm chlorsulfuron
  Shoot Length: 1.5 cm
  Root Length: 1.8 cm
[1]; 100 ppm chlorsulfuron
  Shoot Length: 1.7 cm
  Root Length: 1.9 cm
[2]; 10 ppm chlorsulfuron, 0 ppm PESA salt, untreated 4.8
  Shoot Length: 0.9 cm
[2]; 10 ppm chlorsulfuron, 0 ppm PESA salt, untreated 11.6
  Root Length: 0.6 cm
[2]; 100 ppm chlorsulfuron, 0 ppm PESA salt, untreated 4.8
  Shoot Length: 0.7 cm
[2]; 100 ppm chlorsulfuron, 0 ppm PESA salt, untreated 11.6
  Root Length: 0.3 cm

## C#CCOC(=O)[C@@H](C)Oc1ccc(Oc2ncc(Cl)cc2F)cc1 [Clodinafop-propargyl, clodinafop-propargyl, reference compound]
[3]; 0.3 ppm clodinafop-propargyl, untreated 10.6
  Shoot Length: 10.2 cm
[3]; 0.3 ppm clodinafop-propargyl, untreated 52.1
  Total Root Length: 45.3 cm
[3]; 1 ppm clodinafop-propargyl, untreated 10.6
  Shoot Length: 10.9 cm
[3]; 1 ppm clodinafop-propargyl, untreated 52.1
  Total Root Length: 11.5 cm
[3]; 3 ppm clodinafop-propargyl
  root length reduced by: 91%
[3]; 3 ppm clodinafop-propargyl, untreated 10.6
  Shoot Length: 7.5 cm
[3]; 3 ppm clodinafop-propargyl, untreated 52.1
  Total Root Length: 4.7 cm

## COc1c(Cl)ccc(Cl)c1C(=O)O [Dicamba, dicamba, reference compound]
[3]; 0.01 ppm dicamba, untreated 11.4
  Shoot Length: 10.6 cm
[3]; 0.01 ppm dicamba, untreated 44.9
  Total Root Length: 21.3 cm
[3]; 0.1 ppm dicamba
  root length reduced by: 87%
  shoot length reduced by: 61%
[3]; 0.1 ppm dicamba, untreated 11.4
  Shoot Length: 4.5 cm
[3]; 0.1 ppm dicamba, untreated 44.9
  Total Root Length: 6.0 cm
[3]; 1 ppm dicamba, untreated 11.4
  Shoot Length: 3.8 cm
[3]; 1 ppm dicamba, untreated 44.9
  Total Root Length: 0.0 cm

## CSC(=O)c1c(C(F)F)nc(C(F)(F)F)c(C(=O)SC)c1CC(C)C [Dithiopyr, dithiopyr, reference compound]
[2]; 1 ppm dithiopyr, 0 ppm PESA salt, untreated 4.0
  Shoot Length: 4.3 cm
[2]; 1 ppm dithiopyr, 0 ppm PESA salt, untreated 9.5
  Root Length: 10.0 cm
[2]; 10 ppm dithiopyr
  root length reduced by: 30%
[2]; 10 ppm dithiopyr, 0 ppm PESA salt, untreated 4.0
  Shoot Length: 3.5 cm
[2]; 10 ppm dithiopyr, 0 ppm PESA salt, untreated 9.5
  Root Length: 6.7 cm
[2]; [5]
  Shoot Length: 3.0 cm
[2]; [6]
  Root Length: 4.1 cm
[2]; 100 ppm dithiopyr, 0 ppm PESA salt, untreated 4.0
  Shoot Length: 1.2 cm
[2]; 100 ppm dithiopyr, 0 ppm PESA salt, untreated 9.5
  Root Length: 0.4 cm

## C#CCN1C(=O)COc2cc(F)c(N3C(=O)C4=C(CCCC4)C3=O)cc21 [Flumioxazin, flumioxazin, reference compound]
[3]; 0.1 ppm flumioxazin, untreated 10.6
  Shoot Length: 10.7 cm
[3]; 0.1 ppm flumioxazin, untreated 52.1
  Total Root Length: 41.5 cm
[3]; 0.3 ppm flumioxazin, untreated 10.6
  Shoot Length: 11.0 cm
[3]; 0.3 ppm flumioxazin, untreated 52.1
  Total Root Length: 64.1 cm
[3]; 1 ppm flumioxazin
  root length reduced by: 28%
  shoot length reduced by: 64%
[3]; 1 ppm flumioxazin, untreated 10.6
  Shoot Length: 3.8 cm
[3]; 1 ppm flumioxazin, untreated 52.1
  Total Root Length: 14.5 cm
[3]; 3 ppm flumioxazin, untreated 10.6
  Shoot Length: 5.9 cm
[3]; 3 ppm flumioxazin, untreated 52.1
  Total Root Length: 15.7 cm

## C=C1C[C@]23C[C@@]1(O)CC[C@H]2[C@@]12C=C[C@H](O)[C@@](C)(C(=O)O1)[C@H]2[C@@H]3C(=O)O [GA3, gibberellic acid, reference compound]
[2]; 0 ppm pendimethalin, treatment 30 ppm PESA salt, 10 ppm GA3 or both, untreated 3.9
  Shoot Length: 7.7 cm
[2]; 0 ppm pendimethalin, treatment 30 ppm PESA salt, 10 ppm GA3 or both, untreated 9.7
  Root Length: 10.8 cm
[2]; [5]
  Shoot Length: 5.6 cm
[2]; [6]
  Root Length: 4.7 cm
[2]; [7]
  Shoot Length: 1.5 cm
[2]; [8]
  Root Length: 2.7 cm
[2]; in the growth medium with pendimethalin (Table 4)
  protection of roots and shoots from pendimethalin: only marginally effective at protecting the roots and shoots from pendimethalin
[2]; no dithiopyr (Control), treatment 30 ppm PESA salt, 10 ppm GA3 or both, untreated 3.9
  Shoot Length: 7.0 cm
[2]; no dithiopyr (Control), treatment 30 ppm PESA salt, 10 ppm GA3 or both, untreated 9.5
  Root Length: 10.7 cm

## O=C(O)CNCP(=O)(O)O [Glyphosate, glyphosate, reference compound]
[4]; glyphosate 23 μg/cm2 (Roundup)
  Percent Emergence at 9 days after planting: 72%
[4]; glyphosate 90 μg/cm2 (Roundup)
  Percent Emergence at 9 days after planting: 12%

## COc1cc(OC)nc(NC(=O)NS(=O)(=O)c2c(Cl)nc3ccccn23)n1 [Imazosulfuron, imazosulfuron, reference compound]
[3]; 0.01 ppm imazosulfuron, untreated 11.4
  Shoot Length: 12.6 cm
[3]; 0.01 ppm imazosulfuron, untreated 44.9
  Total Root Length: 41.4 cm
[3]; 0.1 ppm imazosulfuron
  root length reduced by: 49%
[3]; 0.1 ppm imazosulfuron, untreated 11.4
  Shoot Length: 8.6 cm
[3]; 0.1 ppm imazosulfuron, untreated 44.9
  Total Root Length: 23.1 cm
[3]; 1 ppm imazosulfuron
  shoot length reduced by: 86%
[3]; 1 ppm imazosulfuron, untreated 11.4
  Shoot Length: 1.6 cm
[3]; 1 ppm imazosulfuron, untreated 44.9
  Total Root Length: 4.9 cm

## CCc1cccc(C)c1N(C(=O)CCl)C(C)COC (stereo not drawn) [Metolachlor, metolachlor, reference compound]
[2]; 1 ppm metolachlor, 0 ppm PESA salt, untreated 3.7
  Shoot Length: 3.6 cm
[2]; 1 ppm metolachlor, 0 ppm PESA salt, untreated 9.3
  Root Length: 8.2 cm
[2]; 10 ppm metolachlor
  decrease in root length: 60%
[2]; 10 ppm metolachlor, 0 ppm PESA salt, untreated 3.7
  Shoot Length: 0.9 cm
[2]; 10 ppm metolachlor, 0 ppm PESA salt, untreated 9.3
  Root Length: 3.7 cm
[2]; 100 ppm metolachlor, 0 ppm PESA salt, untreated 3.7
  Shoot Length: 0.6 cm
[2]; 100 ppm metolachlor, 0 ppm PESA salt, untreated 9.3
  Root Length: 1.6 cm

## CCC(CC)Nc1c([N+](=O)[O-])cc(C)c(C)c1[N+](=O)[O-] [Pendimethalin, pendimethalin, reference compound]
[2]; 10 ppm pendimethalin, 0 ppm PESA salt, untreated 3.4
  Shoot Length: 3.4 cm
[2]; 10 ppm pendimethalin, 0 ppm PESA salt, untreated 8.5
  Root Length: 8.3 cm
[2]; [7]
  Shoot Length: 1.3 cm
[2]; [8]
  Root Length: 2.9 cm
[2]; 100 ppm pendimethalin
  root length reduced by: 70%
[2]; 100 ppm pendimethalin, 0 ppm PESA salt, untreated 3.4
  Shoot Length: 1.0 cm
[2]; 100 ppm pendimethalin, 0 ppm PESA salt, untreated 8.5
  Root Length: 2.5 cm
[2]; 500 ppm pendimethalin, 0 ppm PESA salt, untreated 3.4
  Shoot Length: 0.5 cm
[2]; 500 ppm pendimethalin, 0 ppm PESA salt, untreated 8.5
  Root Length: 0.5 cm
[2]; [9]
  root length decreased by: 75%
  shoot length decreased by: 67%
